The values below come from PubChem BioAssay (NCI).

Some test systems named below: 786-0 renal; EKVX NSCLC; HL-60(TB) leukemia; HT29 colon; IGROV1 ovarian; KM12 colon; M14 melanoma; MCF7 breast; NCI/ADR-RES ovarian; SK-MEL-2 melanoma.
Holding throughout (assay): NCI-60 cell line screen, 48 h

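How tested: cells in 96-well plates exposed to compound for 48 hours at five concentrations. TGI denotes the concentration required for complete inhibition of growth.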

As for `N#Cc1sc2c(c1OC(=O)c1ccco1)c(=O)n(-c1ccccc1)c(=S)n2-c1ccccc1`, the TGI in the assay with 786-0 renal was greater than 100 µM; in the assay with EKVX NSCLC, greater than 100 µM; in the assay on HL-60(TB) leukemia, greater than 100 µM; in the assay with HT29 colon it was greater than 100 µM; in the assay on IGROV1 ovarian it was greater than 10 µM; in the assay on KM12 colon it was greater than 100 µM. Also, the TGI in the assay with M14 melanoma is 73.3 µM; with MCF7 breast, greater than 100 µM; in the assay with NCI/ADR-RES ovarian, 82 µM; in the assay on SK-MEL-2 melanoma, 84.2 µM.
With `CC(C)OC1=C(CC2(C)OCCO2)C(=O)C12OCCO2`, the TGI in the assay on 786-0 renal, with EKVX NSCLC, with HL-60(TB) leukemia, in the assay on HT29 colon, in the assay on IGROV1 ovarian and with KM12 colon was greater than 100 µM in each case. Further, the TGI in the assay on M14 melanoma, in the assay with MCF7 breast, in the assay with NCI/ADR-RES ovarian and in the assay with SK-MEL-2 melanoma was greater than 100 µM in each case.
Regarding `COc1cc(C2c3cccc4cccc(c34)C3CCC(=O)N32)cc(OC)c1O` (stereo not given), the TGI in the assay with 786-0 renal, in the assay with EKVX NSCLC, in the assay on HL-60(TB) leukemia, in the assay with HT29 colon, with IGROV1 ovarian and with KM12 colon was greater than 50 µM each time. For the same compound, the TGI in the assay on M14 melanoma, in the assay on MCF7 breast, in the assay on NCI/ADR-RES ovarian and with SK-MEL-2 melanoma was greater than 50 µM throughout.
`COc1ccc(C2N(c3ccc(C)c(N=C=O)c3)C(=O)N3C(c4ccc(OC)cc4)N(c4ccc(C)c(N=C=O)c4)C(=O)N23)cc1` (stereo not given): the TGI in the assay with 786-0 renal, in the assay with EKVX NSCLC, in the assay on HL-60(TB) leukemia, in the assay on HT29 colon, in the assay with IGROV1 ovarian and in the assay on KM12 colon was greater than 100 µM throughout. In addition, the TGI in the assay on M14 melanoma, with MCF7 breast, in the assay with NCI/ADR-RES ovarian and with SK-MEL-2 melanoma was greater than 100 µM throughout.
Regarding `O=[N+]([O-])c1c(O)c2nonc2c2nn(-c3ccccc3)nc12`, the TGI in the assay on 786-0 renal, in the assay with EKVX NSCLC, with HL-60(TB) leukemia, in the assay on HT29 colon, in the assay with IGROV1 ovarian and in the assay on KM12 colon was greater than 100 µM throughout. Further, the TGI with M14 melanoma, in the assay on MCF7 breast, with NCI/ADR-RES ovarian and in the assay on SK-MEL-2 melanoma was greater than 100 µM in each case.
Take `C=C(C)C1(Sc2ccc(OC)cc2)CC1`: the TGI with 786-0 renal was greater than 100 µM; in the assay with EKVX NSCLC, greater than 100 µM; in the assay with HL-60(TB) leukemia, 41.6 µM; in the assay on HT29 colon, 61.8 µM; in the assay on IGROV1 ovarian it was 98.4 µM; in the assay with KM12 colon it was greater than 100 µM. Moreover, the TGI in the assay on M14 melanoma was greater than 100 µM; in the assay on MCF7 breast, greater than 100 µM; in the assay on NCI/ADR-RES ovarian, greater than 100 µM; in the assay on SK-MEL-2 melanoma it was 56.5 µM.
In the case of `COc1cc2nc(-c3cccs3)nc(Nc3ccccc3C(=O)NN)c2cc1OC`, the TGI in the assay on 786-0 renal, in the assay on EKVX NSCLC, in the assay with HL-60(TB) leukemia, with HT29 colon, in the assay on IGROV1 ovarian and in the assay on KM12 colon was greater than 100 µM each time. Also, the TGI in the assay with M14 melanoma, with MCF7 breast, in the assay with NCI/ADR-RES ovarian and in the assay on SK-MEL-2 melanoma was greater than 100 µM each time.
With `c1ccc2c(c1)nnn2C1CCCCO1` (stereo not given), the TGI with 786-0 renal, in the assay on EKVX NSCLC, with HL-60(TB) leukemia, with HT29 colon, with IGROV1 ovarian and with KM12 colon was greater than 100 µM in each case. In addition, the TGI with M14 melanoma, with MCF7 breast, in the assay on NCI/ADR-RES ovarian and in the assay with SK-MEL-2 melanoma was greater than 100 µM each time.
Turning to `COc1cc(C(c2ccccc2)N2C(=O)CC[C@H]2C(=O)O)cc(OC)c1OC` (stereo not given in full), the TGI in the assay with 786-0 renal, in the assay on EKVX NSCLC, with HL-60(TB) leukemia, with HT29 colon, in the assay on IGROV1 ovarian and in the assay with KM12 colon was greater than 100 µM each time. Moreover, the TGI in the assay with M14 melanoma, with MCF7 breast, in the assay on NCI/ADR-RES ovarian and in the assay with SK-MEL-2 melanoma was greater than 100 µM throughout.
Turning to `CCOC(=O)Cc1[nH]c(C(=O)c2ccccc2)cc1C(=O)c1ccccc1`, the TGI is greater than 10 µM in the assay with 786-0 renal; greater than 100 µM in the assay with EKVX NSCLC; greater than 100 µM in the assay with HL-60(TB) leukemia; greater than 10 µM with HT29 colon; greater than 10 µM in the assay with IGROV1 ovarian; greater than 100 µM in the assay with KM12 colon. The TGI in the assay with M14 melanoma is greater than 100 µM; with MCF7 breast, greater than 10 µM; with NCI/ADR-RES ovarian it was greater than 100 µM; with SK-MEL-2 melanoma it was greater than 100 µM.
Take `COCC(C#N)NC1CC(OC2CC(O)(C(=O)CO)Cc3c(O)c4c(c(O)c32)C(=O)c2c(OC)cccc2C4=O)OC(C)C1O` (stereo not given): the TGI in the assay on 786-0 renal turned out to be 1.77 µM; with EKVX NSCLC, 4.62 µM; in the assay with HL-60(TB) leukemia, 0.432 µM; with HT29 colon, 9.03 µM; with IGROV1 ovarian it was 0.582 µM; in the assay on KM12 colon, 0.77 µM. Besides, the TGI is 0.774 µM in the assay on M14 melanoma, 0.836 µM in the assay with MCF7 breast, 16 µM in the assay with NCI/ADR-RES ovarian and 0.316 µM with SK-MEL-2 melanoma.
As for `COC(=O)/C1=C/C=C\C[C@@]2(C)CC(c3ccoc3)OC(=O)[C@@H]2CC[C@H]1C` (stereo not given in full), the TGI with 786-0 renal, in the assay on EKVX NSCLC, in the assay with HL-60(TB) leukemia, in the assay on HT29 colon, in the assay with IGROV1 ovarian and with KM12 colon was greater than 25 µM each time. Further, the TGI in the assay on M14 melanoma, in the assay with MCF7 breast, with NCI/ADR-RES ovarian and with SK-MEL-2 melanoma was greater than 25 µM each time.
In the case of `N#Cc1c(/C=C/c2ccccc2)c2c([nH]c1=S)CCCCC2`, the TGI in the assay on 786-0 renal, in the assay with EKVX NSCLC, with HL-60(TB) leukemia, in the assay with HT29 colon, with IGROV1 ovarian and with KM12 colon was greater than 100 µM throughout. Moreover, the TGI in the assay on M14 melanoma, in the assay with MCF7 breast, with NCI/ADR-RES ovarian and in the assay on SK-MEL-2 melanoma was greater than 100 µM in each case.
